Source: US11850237B2, “Compounds and methods for treating influenza” (priority 2009, dated 2023)
Values after ≈ are worked out from the molar mass of the structure shown. Read-outs that look alike come from different tables or passages of the source.

What was measured:
H1N1 A/PR/8/34 (PR8) = assay: microbe, parasite or virus in culture; assay type: cell-based, influenza A virus; conditions: for EC50 / EC90: Influenza A virus; for EC90: read-out: Virus Yield EC90; for antiviral activity against PR8, overall rating: PR8 influenza A virus, Table 1
MDCK cells = assay: Toxicity / cell viability by MTT in uninfected MDCK cells; assay type: cell-based, canine; conditions: MDCK cells, MTT
Procedure: (§1) Cell culture, treatment and transfection-Madin-Darby canine kidney (MDCK) cells, and human A549 alveolar type II-like epithelial, Jurkat Tlymphoblastoid and U397 monocytic leukemia cells were grown at 37° C. in a 5% CO2 atmosphere in RPMI 1640 (Invitrogen), supplemented with 10% fetal calf serum (FCS), 2 mM glutamine and antibiotics. Test compounds were added immediately after 1-hour adsorption period, and kept in the culture medium for the entire time of the experiment, unless differently specified. […] Cell viability was determined by the 3-(4,5-dimethylthiazol-2-yl)-2,5-diphenyltetrazolium bromide (MTT) to MTT formazan conversion assay (Sigma-Aldrich) as described previously. Microscopical examination of mock-infected or virus-infected cells was performed using a Leica DM-IL microscope and images were captured on a Leica DC 300 camera using Leica Image-Manager500 software.

[1] = as above; assay type: cell-based, canine; conditions: dog, uninfected MDCK cells; uninfected cells
Procedure: as §1

[2] = tested on: H1N1 A/PR/8/34 (PR8) virus; assay: microbe, parasite or virus in culture; assay type: cell-based, influenza A virus; conditions: for PR8 Yield: Nitazoxanide 0 μg/ml
[3] = tested on: H1N1 A/PR/8/34 (PR8) virus; assay: microbe, parasite or virus in culture; assay type: cell-based, influenza A virus; conditions: oseltamivir alone at test concentrations up to 1
[4] = target: viral hemagglutinin (HA0) (Influenza A virus, UniProt P03452); assay type: cell-based
[5] = PR8, MDCK cells, read-out: Virus Yield EC50
[6] = MDCK, 24 h, read-out: EC50, inhibition of virus replication

Sequence of viral hemagglutinin (HA0) (P03452 18-565 limits assumed): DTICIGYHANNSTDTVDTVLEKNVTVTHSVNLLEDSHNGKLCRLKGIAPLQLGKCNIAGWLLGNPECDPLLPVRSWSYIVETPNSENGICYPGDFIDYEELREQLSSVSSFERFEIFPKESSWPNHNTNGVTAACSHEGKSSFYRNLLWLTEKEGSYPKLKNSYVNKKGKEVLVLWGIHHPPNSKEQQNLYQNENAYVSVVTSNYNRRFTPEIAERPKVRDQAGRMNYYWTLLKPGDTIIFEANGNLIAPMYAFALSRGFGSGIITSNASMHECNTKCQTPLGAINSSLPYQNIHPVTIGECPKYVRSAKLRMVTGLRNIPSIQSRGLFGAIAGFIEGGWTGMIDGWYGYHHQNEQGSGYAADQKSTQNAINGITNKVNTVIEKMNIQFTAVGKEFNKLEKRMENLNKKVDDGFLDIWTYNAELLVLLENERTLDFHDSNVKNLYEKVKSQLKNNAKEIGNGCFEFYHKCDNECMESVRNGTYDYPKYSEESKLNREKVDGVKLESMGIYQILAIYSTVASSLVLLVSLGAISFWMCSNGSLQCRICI

Compound	EC50 (H1N1 A/PR/8/34 (PR8); [5])	EC90 (H1N1 A/PR/8/34 (PR8); PR8, MDCK cells)	Toxicity LD50 (MTT) (MDCK cells)	other results
O=C(Nc1ncc([N+](=O)[O-])s1)c1ccccc1[O-].[Na+] [Compound 3, tizoxanide sodium salt]	0.4 µg/mL	2.5 µg/mL	>50 µg/mL	antiviral activity against PR8, overall rating (H1N1 A/PR/8/34 (PR8)): potent and selective
CC(C)COC(=O)Oc1ccccc1C(=O)Nc1ncc([N+](=O)[O-])s1 [Compound 14]	1 µg/mL (≈ 2.74 µM)	8 µg/mL (≈ 21.9 µM)	20 µg/mL	
CCOC(=O)Oc1ccccc1C(=O)Nc1ncc([N+](=O)[O-])s1 [Compound 15]	1 µg/mL (≈ 2.96 µM)	7 µg/mL (≈ 20.8 µM)	30 µg/mL	
CCC(=O)Oc1ccccc1C(=O)Nc1ncc([N+](=O)[O-])s1 [Compound 16]	1 µg/mL (≈ 3.11 µM)	8 µg/mL (≈ 24.9 µM)	20 µg/mL	
O=C(Oc1ccccc1C(=O)Nc1ncc([N+](=O)[O-])s1)c1ccccc1 [Compound 17]	3 µg/mL (≈ 8.12 µM)	9 µg/mL (≈ 24.4 µM)	>50 µg/mL	
CC(=O)Oc1ccccc1C(=O)Nc1nc(S(C)(=O)=O)cs1 [Compound 27]	0.1 µg/mL (≈ 0.294 µM)	0.8 µg/mL (≈ 2.35 µM)	>50 µg/mL	EC50 (H1N1 A/PR/8/34 (PR8); [6]): 0.1 µg/mL (≈ 0.294 µM); potency relative to NTZ and TIZ (H1N1 A/PR/8/34 (PR8); PR8, MDCK cells): 10 times; antiviral activity against PR8, overall rating (H1N1 A/PR/8/34 (PR8)): potent and selective; CC50 [1]: > 50 µg/mL
CS(=O)(=O)c1csc(NC(=O)c2ccccc2O)n1 [Compound 28]	0.1 µg/mL (≈ 0.335 µM)	0.7 µg/mL (≈ 2.35 µM)	>50 µg/mL	EC50 (H1N1 A/PR/8/34 (PR8); [6]): 0.1 µg/mL (≈ 0.335 µM); potency relative to NTZ and TIZ (H1N1 A/PR/8/34 (PR8); PR8, MDCK cells): 10 times; antiviral activity against PR8, overall rating (H1N1 A/PR/8/34 (PR8)): potent and selective; CC50 [1]: > 50 µg/mL
CC(=O)Oc1ccccc1C(=O)Nc1nc([S+](C)[O-])cs1 (centres unmarked) [Compound 29]	10 µg/mL (≈ 30.8 µM)	> 50 µg/mL	>50 µg/mL	
C[S+]([O-])c1csc(NC(=O)c2ccccc2O)n1 (centres unmarked) [Compound 30]	10 µg/mL (≈ 35.4 µM)	> 50 µg/mL	>50 µg/mL	
CC(=O)Oc1cccc(C(=O)Nc2nc(S(C)(=O)=O)cs2)c1 [Compound 31]	> 50 µg/mL	> 50 µg/mL	>50 µg/mL	
CS(=O)(=O)c1csc(NC(=O)c2cccc(O)c2)n1 [Compound 32]	> 50 µg/mL	> 50 µg/mL	>50 µg/mL	
CSc1csc(NC(=O)c2ccc(OC(C)=O)cc2)n1 [Compound 33]	> 50 µg/mL	> 50 µg/mL	>50 µg/mL	
CC(=O)Oc1ccc(C(=O)Nc2nc(S(C)(=O)=O)cs2)cc1 [Compound 34]	> 50 µg/mL	> 50 µg/mL	>50 µg/mL	
CS(=O)(=O)c1csc(NC(=O)c2ccc(O)cc2)n1 [Compound 35]	> 50 µg/mL	> 50 µg/mL	>50 µg/mL	
CC(=O)Oc1ccccc1C(=O)Nc1nc(S(=O)(=O)C(C)C)cs1 [Compound 36]	1 µg/mL (≈ 2.71 µM)	8 µg/mL (≈ 21.7 µM)	>50 µg/mL	antiviral activity against PR8, overall rating (H1N1 A/PR/8/34 (PR8)): potent and selective
CC(C)S(=O)(=O)c1csc(NC(=O)c2ccccc2O)n1 [Compound 37]	0.6 µg/mL (≈ 1.84 µM)	15 µg/mL (≈ 46 µM)	>50 µg/mL	antiviral activity against PR8, overall rating (H1N1 A/PR/8/34 (PR8)): potent and selective
CC(=O)Oc1ccccc1C(=O)Nc1nc(S(=O)(=O)C2CCCCC2)cs1 [Compound 38]	25 µg/mL (≈ 61.2 µM)	> 50 µg/mL	>50 µg/mL	
O=C(Nc1nc(S(=O)(=O)C2CCCCC2)cs1)c1ccccc1O [Compound 39]	10 µg/mL (≈ 27.3 µM)	30 µg/mL (≈ 81.9 µM)	>50 µg/mL	
CC(=O)Oc1ccccc1C(=O)Nc1ncc(S(=O)(=O)c2ccc([N+](=O)[O-])cc2)s1 [Compound 51]	3.5 µg/mL (≈ 7.82 µM)	9 µg/mL (≈ 20.1 µM)	30 µg/mL	
CC(=O)Oc1ccccc1C(=O)Nc1ncc(S(C)(=O)=O)s1 [Compound 52]	30 µg/mL (≈ 88.1 µM)	> 50 µg/mL	>50 µg/mL	
CS(=O)(=O)c1cnc(NC(=O)c2ccccc2O)s1 [Compound 53]	10 µg/mL (≈ 33.5 µM)	> 50 µg/mL	>50 µg/mL	
CS(=O)(=O)c1cnc(NC(=O)c2ccccc2[O-])s1.[Na+] [Compound 54]	10 µg/mL	> 50 µg/mL	>50 µg/mL	
CCCCS(=O)(=O)c1cnc(NC(=O)c2ccccc2OC(C)=O)s1 [Compound 59]	5 µg/mL (≈ 13.1 µM)	30 µg/mL (≈ 78.4 µM)	>50 µg/mL	
CC(=O)Oc1ccc(C(=O)Nc2ncc(S(C)(=O)=O)s2)cc1 [Compound 63]	10 µg/mL (≈ 29.4 µM)	> 50 µg/mL	>50 µg/mL	
CS(=O)(=O)c1cnc(NC(=O)c2ccc(O)cc2)s1 [Compound 64]	> 50 µg/mL	> 50 µg/mL	>50 µg/mL	
CC(=O)Oc1cccc(C(=O)Nc2ncc(S(C)(=O)=O)s2)c1 [Compound 65]	> 50 µg/mL	> 50 µg/mL	>50 µg/mL	
CS(=O)(=O)c1cnc(NC(=O)c2cccc(O)c2)s1 [Compound 66]	> 50 µg/mL	> 50 µg/mL	>50 µg/mL	
CC(=O)N[C@H]1[C@H]([C@H](O)[C@H](O)CO)OC(C(=O)O)=C[C@@H]1N=C(N)N [Zanamivir]				EC50 ([2]; Influenza A virus, zanamivir alone, PR8, MDCK cells, read-out: EC50): 1000 nM; PR8 Yield ([2]; Zanamivir 0.01 μM): 48 HAU/ml; PR8 Yield ([2]; Zanamivir 0.1 μM): 48 HAU/ml; PR8 Yield ([2]; Zanamivir 1 μM): 24 HAU/ml; effect on viral replication ([2]; zanamivir alone at 0.1 μM): had no effect; reduction (inhibition) of virus yield ([2]; zanamivir alone at the highest test concentration of 1): 50%
CCOC(=O)C1=C[C@@H](OC(CC)CC)[C@H](NC(C)=O)[C@@H](N)C1 [oseltamivir, reference compound]				reduction (inhibition) of virus yield [3]: did not observe reduction
tunicamycin [TM, reference compound]				HA0 glycosylation (glucosamine, mannose incorporation) [4]: completely prevented HA0 glycosylation; intracellular HA0 levels / accumulation [4]: caused a decrease in HA0 accumulation
